This is an account of results in patent publication US20090098044A1, “SOLID PARTICLES FROM CONTROLLED DESTABILISATION OF MICROEMULSIONS” (Australian Nuclear Science and Technology Organisation, priority 2004, published 2009).

Assay type in all cases: physicochemical
Data set [1] is described as follows: Decomposition of pure doxorubicin in PBS (pH 6.9/25° C.) at 37° C. The settings on record: normal phosphate buffer.
The next data set in a line: Solubility of the drug.
Data set [2] can be described thus: Decomposition of doxorubicin at pH 7.4 versus pH<4. The source says:
The decomposition rate of doxorubicin at physiological pH (pH 7.4) versus its decomposition rate at pH<4 makes analysis of the system difficult.

Molecules are shown by their SMILES.

For the compound `COc1cccc2c1C(=O)c1c(O)c3c(c(O)c1C2=O)C[C@@](O)(C(=O)CO)C[C@@H]3O[C@H]1C[C@H](N)[C@H](O)[C@H](C)O1` [doxorubicin], in data set [1] (in 2 weeks), the doxorubicin disappears entry is on record as “about 74%”. Moreover, in data set [1] (phosphate buffer (PBS), pH 6.9, exponential decomposition during first ten days, read-out: half decay (T1/2) of doxorubicin (converted)), the half-life is ~108 h. In addition, the “solubility of doxorubicin in acetone” value in “Solubility of the drug” (acetone) was “high solubility”. Further, the “solubility of doxorubicin in aqueous solutions” value in “Solubility of the drug” (aqueous solutions, orange precipitate seen after day 9) is “limited solubility”. The “decomposition of doxorubicin at pH 7.4 compared with pH<4” value in data set [2] (known concentration of doxorubicin, FIG. 44) is reported as “increased decomposition at physiological pH”. For the same compound, the “stability of doxorubicin as a function of pH” value in data set [2] (pH<4 (pH ~3.4)) is “most stable at this pH”.
